This is an account of results in paper PMC7816196, “Antitubercular 2-Pyrazolylpyrimidinones: Structure–Activity Relationship and Mode-of-Action Studies” (Journal of Medicinal Chemistry, 2021).

One data set relates to Mtb H37Rv. The data set can be described thus: MIC against Mtb H37Rv, Alamar Blue broth microdilution. It counts as cell-based, Mycobacterium tuberculosis.
Data set [1] is described as follows: Kinetic aqueous solubility at pH 7.4. It counts as physicochemical. On the procedure:
3) In vitro ADME - assays
The kinetic solubility assay was p erfo rmed using a miniaturised shake flask method. 10 mM stock solutions of each of the test compounds were used to prepare calibration standards (10-220 µM) in DMSO. The same 10 mM stock soluti ons were accurately dispensed in duplicat e into 96-well plates and the DMSO dried down (MiVac GeneVac, 90 min, 37 °C). Thereafter, the samples were reconstituted (200 µM) in phosphate buffered saline (pH 7. 4) and shaken (20 hours,25 °C). The solutions were centrifuged, and the supernatant was an alysed by means of HPLC-DAD (Agilent 1200 Rapid Resolution HPLC with a diode array detector). Best fit calibration curves were constructed using the calibration standards, which were used to determine the aqueous samples’ solubility.4
The metabolic stability assay was performed in dup licate in a 96-well micro t itre plate. The test compounds (0.1 µM) were incubated individually in mouse, rat and pooled human liver microsomes (final protei n concentration of 0.4 m g/mL; XenoTech, Lenexa, KS), suspended in 0.1M phosphate buffer (pH 7.4) for predetermined time points, in the presence and abs ence of the cofactor NADPH (1 mM). Reactions were quenched by adding 300 µL of ice cold acetonitrile containing internal standard (carbamazepine, 0.0236 µg/mL). The samples were centrifuged and test in the supernatant were an alysed by means of LC-MS/MS ((Agilent Rapid Resolution HPLC, AB SCIEX 4500 MS). The rel ative loss of parent compound over time w as monitored and plots (concentration vs. time) were prepared per compound to determine the first order rate constant for compound depletion. This was in turn used to calculate h alf-life, in vitro intrinsic clearance and in vivo hepatic extraction ratio. Metabolite search es were not conducted during the met abolic stability assay.5

Another data set concerns mmpL3-TetON. The data set can be described thus: microbe, parasite or virus in culture. It counts as cell-based, M. tuberculosis. The conditions noted are these: for MIC50 / MIC: Mycobacterium tuberculosis.
The next data set has as its system WT H37Rv. The data set can be described thus: microbe, parasite or virus in culture. It counts as cell-based, M. tuberculosis. Conditions: Mycobacterium tuberculosis.
Where [2] appears, read: phosphate buffered saline, pH 7.4, aqueous (kinetic) solubility at pH 7.4, read-out: Solubility.
[3] abbreviates: Mycobacterium tuberculosis, H37RV, supplement csv, medium not stated.
The mark [4] stands for this setting: Mycobacterium tuberculosis, H37RV, 168 h.

Values after ≈ are worked out from the molar mass of the structure shown. Read-outs that look alike come from different tables or passages of the source. Bounds are passed on as bounds.

Regarding “2-(3-Methyl-5-oxo-2,5-dihydro-1H-pyrazol-1-yl)-6-phenylpyrimidin-4(1H)-one [Compound 13]”, the MIC was above 125 µM with Mtb H37Rv and above 125 µM against Mtb H37Rv (supplement csv, medium not stated). For the same compound, the solubility at 20 h in data set [1] (aqueous (kinetic) solubility at pH 7.4, read-out: Solubility) was 190 µM.

Turning to `COc1cc(-c2ccccc2)nc(-n2nc(C)cc2C)n1` [Compound 3, 2-(3,5-Dimethyl-1H-pyrazol-1-yl)-4-methoxy-6-phenylpyrimidine], the solubility at 20 h in data set [1] (setting [2]) was at least 200 µM.

`Cc1cc(C)n(-c2nc(-c3ccccc3)cc(=O)n2C)n1` [Compound 4, 2-(3,5-Dimethyl-1H-pyrazol-1-yl)-3-methyl-6-phenylpyrimidin-4(3H)-one]: the solubility at 20 h in data set [1] (setting [2]) is at least 200 µM.

Turning to `Cc1cc(O)nc(-n2nc(C)cc2C)n1` [Compound 11, 2-(3,5-Dimethyl-1H-pyrazol-1-yl)-6-methylpyrimidin-4(3H)-one], in the data set on Mtb H37Rv (CH3 or CF3 at R1 instead of phenyl), the loss in activity was 10–15 fold.

For the compound `Cn1ccnc1-c1nc(-c2ccccc2)cc(=O)[nH]1` [Compound 18, 2-(1-Methyl-1H-imidazole-2-yl)-6-phenylpyrimidin-4(1H)-one], in data set [1] (setting [2]), the solubility at 20 h is at least 200 µM.

Consider `Cc1cc(C)n(-c2nc(-c3ccc(F)cc3)cc(=O)[nH]2)n1` [Compound 19, 2-(3,5-Dimethyl-1H-pyrazol-1-yl)-6-(4-fluorophenyl)pyrimidin-4(3H)-one], for which the MIC against Mtb H37Rv (setting [3]) worked out at 1 µM (≈ 0.284 µg/mL).

On to `Cc1cc(C)n(-c2nc(-c3cccnc3)cc(=O)[nH]2)n1` [Compound 21, 2-(3,5-Dimethyl-1H-pyrazol-1-yl)-6-(pyridin-3-yl)pyrimidin-4(3H)-one], for which the solubility at 20 h in data set [1] (setting [2]) is at least 200 µM.

For the compound `Cc1cc(C)n(-c2nc(C(=O)Nc3ccc(F)cc3)cc(=O)[nH]2)n1` [Compound 26, 2-(3,5-Dimethyl-1H-pyrazol-1-yl)-N-(4-fluorophenyl)-6-oxo-1,6-dihydropyrimidine-4-carboxamide], in data set [1] (setting [2]), the solubility at 20 h is at least 200 µM.

On to `CCc1cc(C)nn1-c1nc(C(F)(F)F)cc(=O)[nH]1` [Compound 30, 2-(5-Ethyl-3-methyl-1H-pyrazol-1-yl)-6-(trifluoromethyl)pyrimidin-4(3H)-one], for which, in data set [1] (setting [2]), the solubility at 20 h was at least 200 µM.

For the compound `Cc1cc(-c2ccccc2)n(-c2nc(C(F)(F)F)cc(=O)[nH]2)n1` [Compound 32, 2-(3-Methyl-5-phenyl-1H-pyrazol-1-yl)-6-(trifluoromethyl)pyrimidin-4(3H)-one], the solubility at 20 h in data set [1] (setting [2]) was at least 200 µM.

For the compound `Cc1cc(N)n(-c2nc(C(F)(F)F)cc(=O)[nH]2)n1` [Compound 33, 2-(5-Amino-3-methyl-1H-pyrazol-1-yl)-6-(trifluoromethyl)pyrimidin-4(3H)-one], the solubility at 20 h in data set [1] (setting [2]) was at least 200 µM.

For the compound `CCNc1cc(C)nn1-c1nc(C(F)(F)F)cc(=O)[nH]1` [Compound 34, 2-(5-(Ethylamino)-3-methyl-1H-pyrazol-1-yl)-6-(trifluoromethyl)pyrimidin-4(3H)-one], the MIC against Mtb H37Rv (setting [3]) worked out at 6 µM (≈ 1.72 µg/mL).

In the case of `Cc1cc(NCCN(C)C)n(-c2nc(C(F)(F)F)cc(=O)[nH]2)n1` [Compound 36, 2-(5-((2-(Dimethylamino)ethyl)amino)-3-methyl-1H-pyrazol-1-yl)-6-(trifluoromethyl)pyrimidin-4(3H)-one], the solubility at 20 h in data set [1] (setting [2]) was at least 200 µM.

In the case of `Cc1cc(NCCO)n(-c2nc(C(F)(F)F)cc(=O)[nH]2)n1` [Compound 37, 2-(5-((2-Hydroxyethyl)amino)-3-methyl-1H-pyrazol-1-yl)-6-(trifluoromethyl)pyrimidin-4(3H)-one], in data set [1] (setting [2]), the solubility at 20 h was at least 200 µM.

In the case of `COCCNc1cc(C)nn1-c1nc(C(F)(F)F)cc(=O)[nH]1` [Compound 38, 2-(5-((2-Methoxyethyl)amino)-3-methyl-1H-pyrazol-1-yl)-6-(trifluoromethyl)pyrimidin-4(3H)-one], the MIC against Mtb H37Rv (setting [4]) was 1.5 to 2 µM (≈ 0.476 to 0.635 µg/mL); with mmpL3-TetON (experiment: Initial), 1.1 µM (≈ 0.349 µg/mL); against WT H37Rv (experiment: Follow-Up), 1.5 µM (≈ 0.476 µg/mL); against WT H37Rv (experiment: Initial) it was 1.1 µM (≈ 0.349 µg/mL). Also, the “change in MIC on transcriptional silencing of mmpL3” value in the data set on mmpL3-TetON was “no significant change”. Also, the MIC50 in the data set with mmpL3-TetON (experiment: Follow-Up) was determined as 0.78 µM (≈ 0.247 µg/mL); with mmpL3-TetON (experiment: Initial), 0.47 µM (≈ 0.149 µg/mL); with WT H37Rv (experiment: Follow-Up), 0.87 µM (≈ 0.276 µg/mL); against WT H37Rv (experiment: Initial) it was 0.46 µM (≈ 0.146 µg/mL). Besides, the solubility at 20 h in data set [1] (setting [2]) was at least 200 µM.

As to `Cc1cc(NC2CCOCC2)n(-c2nc(C(F)(F)F)cc(=O)[nH]2)n1` [Compound 39, 2-(3-Methyl-5-((tetrahydro-2H-pyran-4-yl)amino)-1H-pyrazol-1-yl)-6-(trifluoromethyl)pyrimidin-4(3H)-one], the MIC against Mtb H37Rv (setting [4]) is 1.5 to 2 µM (≈ 0.515 to 0.687 µg/mL); in the data set with Mtb H37Rv (setting [3]) it was 1 µM (≈ 0.343 µg/mL).

On to `Cc1cc(Nc2ccc(F)cc2F)n(-c2nc(C(F)(F)F)cc(=O)[nH]2)n1` [Compound 41, 2-(5-((2,4-Difluorophenyl)amino)-3-methyl-1H-pyrazol-1-yl)-6-(trifluoromethyl)pyrimidin-4(3H)-one], for which the MIC with Mtb H37Rv (setting [4]) came out at 0.2 µM (≈ 0.0743 µg/mL).

As to `Cc1cc(Nc2ccc(C#N)cc2)n(-c2nc(C(F)(F)F)cc(=O)[nH]2)n1` [Compound 42, 4-((3-Methyl-1-(6-oxo-4-(trifluoromethyl)-1,6-dihydropyrimidin-2-yl)-1H-pyrazol-5-yl)amino)benzonitrile], the MIC against Mtb H37Rv (setting [4]) and against Mtb H37Rv (setting [3]) was 9 µM (≈ 3.24 µg/mL) throughout.

On to `Cc1cc(Nc2ccc(C(=O)N(C)C)cc2)n(-c2nc(C(F)(F)F)cc(=O)[nH]2)n1` [Compound 43, N,N-Dimethyl-4-((3-Methyl-1-(6-oxo-4-(trifluoromethyl)-1,6-dihydropyrimidin-2-yl)-1H-pyrazol-5-yl)amino)benzamide], for which the solubility at 20 h in data set [1] (setting [2]) was at least 200 µM.

Consider `Cc1cc(Nc2ccncc2)n(-c2nc(C(F)(F)F)cc(=O)[nH]2)n1` [Compound 44, 2-(3-Methyl-5-(pyridin-4-ylamino)-1H-pyrazol-1-yl)-6-(trifluoromethyl)pyrimidin-4(3H)-one], for which, in data set [1] (phosphate buffered saline, pH 7.4, supplement csv, pH 7.4, read-out: SolubilitypH 7.4), the solubility at 20 h amounted to 22 µM (≈ 7.4 µg/mL).

Consider `Cc1cc(Nc2ccc(N3CCOCC3)cn2)n(-c2nc(C(F)(F)F)cc(=O)[nH]2)n1` [Compound 46, 2-(3-Methyl-5-((5-morpholinopyridin-2-yl)amino)-1H-pyrazol-1-yl)-6-(trifluoromethyl)pyrimidin-4(3H)-one], for which the MIC against Mtb H37Rv (setting [4]) and against Mtb H37Rv (setting [3]) was 2 µM (≈ 0.843 µg/mL) throughout.

As to `Cc1nn(-c2nc(C(F)(F)F)cc(=O)[nH]2)c(C)c1Br` [Compound 48, 2-(4-Bromo-3,5-dimethyl-1H-pyrazol-1-yl)-6-(trifluoromethyl)pyrimidin-4(3H)-one], in data set [1] (setting [2]), the solubility at 20 h was at least 200 µM.

For the compound `Cc1nn(-c2nc(C(F)(F)F)cc(=O)[nH]2)c(C)c1N1CCOCC1` [Compound 50, 2-(3,5-Dimethyl-4-morpholino-1H-pyrazol-1-yl)-6-(trifluoromethyl)pyrimidin-4(3H)-one], the MIC in the data set with Mtb H37Rv (setting [3]) was found to be 6 µM (≈ 2.06 µg/mL).

For the compound `Cc1cc(CN(C)C)nn1-c1nc(C(F)(F)F)cc(=O)[nH]1` [Compound 52, 2-(3-((Dimethylamino)methyl)-5-methyl-1H-pyrazol-1-yl)-6-(trifluoromethyl)pyrimidin-4(3H)-one], the solubility at 20 h in data set [1] (setting [2]) is at least 200 µM.

As to `CC[C@@H](CO)NCCN[C@@H](CC)CO` [Ethambutol, reference compound], the MIC is 4.9 µM (≈ 1 µg/mL) with mmpL3-TetON (experiment: Follow-Up), 1.6 µM (≈ 0.327 µg/mL) in the data set on mmpL3-TetON (experiment: Initial), 3.8 µM (≈ 0.776 µg/mL) in the data set on WT H37Rv (experiment: Follow-Up) and 2.4 µM (≈ 0.49 µg/mL) against WT H37Rv (experiment: Initial). For the same compound, the MIC50 amounted to 1.9 µM (≈ 0.388 µg/mL) against mmpL3-TetON (experiment: Follow-Up), 1.3 µM (≈ 0.266 µg/mL) against mmpL3-TetON (experiment: Initial), 1.4 µM (≈ 0.286 µg/mL) in the data set on WT H37Rv (experiment: Follow-Up) and 0.98 µM (≈ 0.2 µg/mL) with WT H37Rv (experiment: Initial).

As for `CC(C)=CCC/C(C)=C/CNCCNC1C2CC3CC(C2)CC1C3` (stereo not drawn) [SQ109, reference compound], the MIC against mmpL3-TetON (experiment: Follow-Up) was determined as 0.19 µM (≈ 0.0628 µg/mL); against mmpL3-TetON (experiment: Initial) it was 0.27 µM (≈ 0.0893 µg/mL); with WT H37Rv (experiment: Follow-Up), 0.98 µM (≈ 0.324 µg/mL); in the data set with WT H37Rv (experiment: Initial) it was 0.99 µM (≈ 0.327 µg/mL). For the same compound, the MIC50 in the data set on mmpL3-TetON (experiment: Follow-Up) came to 0.1 µM (≈ 0.0331 µg/mL); against mmpL3-TetON (experiment: Initial) it was 0.071 µM (≈ 0.0235 µg/mL); against WT H37Rv (experiment: Follow-Up), 0.54 µM (≈ 0.179 µg/mL); with WT H37Rv (experiment: Initial) it was 0.39 µM (≈ 0.129 µg/mL).
